Test results taken from ChEMBL document CHEMBL4339208, “6-Bromoindolglyoxylamido derivatives as antimicrobial agents and antibiotic enhancers” (Bioorg Med Chem, 2019).
In brackets after ≈: the same amount, converted by molar mass. Activity calls are given as the source filed them. The calls are words filed in the database; no cut-off is given here.

Legend:
Escherichia coli = experiment: Antibacterial activity against Escherichia coli ATCC 25922 measured after 18 hrs by broth dilution method; format: functional
Pseudomonas aeruginosa [1] = experiment: Potentiation of doxycycline-induced antibacterial activity against Pseudomonas aeruginosa ATCC 27853 assessed as concentration required to restore 2 ug/ml doxycycline activity measured after 18 hrs; format: functional
Acinetobacter baumannii [2] = experiment: Antibacterial activity against Acinetobacter baumannii ATCC 19606 measured after 18 hrs by resazurin dye based assay; format: functional
Pseudomonas aeruginosa [3] = experiment: Antibacterial activity against Pseudomonas aeruginosa ATCC 27853 measured after 18 hrs by broth dilution method; format: functional
Staphylococcus aureus [4] = experiment: Antibacterial activity against Staphylococcus aureus ATCC 25923 measured after 18 hrs by broth dilution method; format: functional; conditions: ATCC 25923, 18 h
Cryptococcus neoformans [5] = experiment: Antifungal activity against Cryptococcus neoformans ATCC 208821 measured after 36 hrs by resazurin dye based assay; format: functional; conditions: ATCC 208821, 36 h
Klebsiella pneumoniae [6] = experiment: Antibacterial activity against Klebsiella pneumoniae ATCC 700603 measured after 18 hrs by resazurin dye based assay; format: functional
Erythrocyte [7] = experiment: Hemolytic activity against human RBC incubated for 10 mins under shaking condition measured after 1 hr; format: ADME, cell-based
L6 = experiment: Cytotoxicity against rat L6 cells measured after 72 hrs by alamar blue assay; format: cell-based; conditions: L6, 72 h
[8] = Cytotoxicity against HEK293 cells measured after 20 hrs by resazurin dye based fluorescence assay; format: cell-based, Homo sapiens; conditions: human, HEK293 cells
Candida albicans [9] = experiment: Antifungal activity against Candida albicans ATCC 90028 measured after 36 hrs; format: functional; conditions: ATCC 90028, 36 h
[10] = tested on: Staphylococcus intermedius; experiment: Antibacterial activity against Staphylococcus intermedius 1051997 measured after 18 hrs by broth dilution method; format: functional; conditions: Staphylococcus intermedius, 1051997, 18 h
Erythrocyte [11] = experiment: Hemolytic activity against human RBC at 32 ug/ml incubated for 10 mins under shaking condition measured after 1 hr; format: ADME, cell-based
Acinetobacter baumannii [12] = experiment: Antibacterial activity against Acinetobacter baumannii ATCC 19606 at 32 ug/ml measured after 18 hrs by resazurin dye based assay; format: functional, organism-based; conditions: ATCC 19606 = CIP 70.34 = JCM 6841
Candida albicans [13] = experiment: Antifungal activity against Candida albicans ATCC 90028 at 32 ug/ml measured after 36 hrs; format: functional, organism-based
Klebsiella pneumoniae [14] = experiment: Antibacterial activity against Klebsiella pneumoniae ATCC 700603 at 32 ug/ml measured after 18 hrs by resazurin dye based assay; format: functional, organism-based
Cryptococcus neoformans [15] = experiment: Antifungal activity against Cryptococcus neoformans ATCC 208821 at 32 ug/ml measured after 36 hrs by resazurin dye based assay; format: functional, organism-based
Staphylococcus aureus [16] = experiment: Induction of membrane depolarization in Staphylococcus aureus ATCC 25923 measured after 15 mins by DiSC3(5) dye based spectrofluorometric method; format: functional, organism-based
Staphylococcus aureus [17] = experiment: Disruption of membrane integrity in Staphylococcus aureus ATCC 25923 assessed as increase in extracellular ATP level at 10 uL by luciferin-luciferase reagent based luminescence assay; format: functional, organism-based
Pseudomonas aeruginosa [18] = experiment: Disruption of membrane integrity in Pseudomonas aeruginosa PAO1 assessed as increase in extracellular ATP level at 10 uL by luciferin-luciferase reagent based luminescence assay; format: functional, organism-based
Pseudomonas aeruginosa [19] = experiment: Disruption of membrane integrity in Pseudomonas aeruginosa PAO1 assessed as decrease in intracellular ATP level at 1% by luciferin-luciferase reagent based luminescence assay relative to control; format: functional, organism-based; parameters: scale not given: the % may be the effect or the level left
[20] = ATCC 19606 = CIP 70.34 = JCM 6841, 18 h
[21] = Klebsiella pneumoniae, 700603, 18 h

Row | Compound | MIC (Escherichia coli; ATCC 25922, 18 h) | Activity (Pseudomonas aeruginosa [1]) | MIC (Acinetobacter baumannii [2]; [20]) | MIC (Pseudomonas aeruginosa [3]; ATCC 27853, 18 h) | MIC (Staphylococcus aureus [4]) | MIC (Cryptococcus neoformans [5]) | MIC (Klebsiella pneumoniae [6]; [21]) | HC10 (Erythrocyte [7]) | IC50 (L6) | CC50 at 20 h [8] | MIC (Candida albicans [9]) | MIC [10] | Activity (Acinetobacter baumannii [12]) | Activity (Candida albicans [13]) | Activity (Klebsiella pneumoniae [14]) | Activity (Cryptococcus neoformans [15]) | further results
1 | O=C(NCCCNCCCCCCCCCCNCCCNC(=O)C(=O)c1c[nH]c2cc(Br)ccc12)C(=O)c1c[nH]c2cc(Br)ccc12.O=C(O)C(F)(F)F.O=C(O)C(F)(F)F | 24.6 µM | 6.16 µM | 31.5 µM | 24.6 µM | 12.3 µM | < 0.25 µM | 31.5 µM | 7.88 µM | 12.4 µM | 6.03 µM | 1.97 µM |  |  |  |  |  | 
2 | COLISTIN |  |  |  |  |  |  |  |  |  |  |  |  |  |  |  |  | MIC (Escherichia coli): 1 µM; MIC (Acinetobacter baumannii [2]; ATCC 19606 = CIP 70.34 = JCM 6841): 0.25 µg/mL; MIC (Pseudomonas aeruginosa [3]): 2 µM; MIC (Klebsiella pneumoniae [6]): 0.25 µg/mL
3 | CN[C@@H]1[C@H](O[C@H]2[C@H](O[C@H]3[C@H](O)[C@@H](O)[C@H](N=C(N)N)[C@@H](O)[C@@H]3N=C(N)N)O[C@@H](C)[C@]2(O)C=O)O[C@@H](CO)[C@H](O)[C@H]1O [STREPTOMYCIN] | 21.5 µM (≈ 12.5 µg/mL) |  |  | 21.5 µM (≈ 12.5 µg/mL) | 21.5 µM (≈ 12.5 µg/mL) |  |  |  |  |  |  | 10.7 µM (≈ 6.22 µg/mL) |  |  |  |  | 
4 | O=C(NCCCCNCCCNC(=O)C(=O)c1c[nH]c2cc(Br)ccc12)C(=O)c1c[nH]c2cc(Br)ccc12 | > 200 µM | >200 µM | > 50 µM | 50 µM (≈ 32.3 µg/mL) | 3.12 µM (≈ 2.02 µg/mL) | 50 µM | > 50 µM | > 50 µM | 8.7 µM | 2.32 µM | > 50 µM | 3.12 µM (≈ 2.02 µg/mL) | inactive | inactive | inactive |  | Activity (Erythrocyte [11]): Non-Toxic
5 | O=C(NCCCNCCCCCCCNCCCNC(=O)C(=O)c1c[nH]c2cc(Br)ccc12)C(=O)c1c[nH]c2cc(Br)ccc12.O=C(O)C(F)(F)F.O=C(O)C(F)(F)F | 51.4 µM | 12.9 µM | > 33 µM | 51.4 µM | 6.4 µM | > 33 µM | > 33 µM | > 33 µM | 4.4 µM | 10.6 µM | 16.5 µM |  | inactive |  | inactive | inactive | Activity (Erythrocyte [11]): Non-Toxic
6 | CC[C@H](C)[C@H](NC(=O)CN)C(=O)NCC(=O)N[C@@H](C)C(=O)N[C@H](C(=O)N[C@@H](CC(C)C)C(=O)N[C@@H](CCCCN)C(=O)N[C@H](C(=O)N[C@@H](CC(C)C)C(=O)N[C@H](C(=O)N[C@H](C(=O)NCC(=O)N[C@@H](CC(C)C)C(=O)N1CCC[C@H]1C(=O)N[C@@H](C)C(=O)N[C@@H](CC(C)C)C(=O)N[C@H](C(=O)N[C@@H](CO)C(=O)N[C@@H](Cc1c[nH]c2ccccc12)C(=O)N[C@H](C(=O)N[C@@H](CCCCN)C(=O)N[C@@H](CCCNC(=N)N)C(=O)N[C@@H](CCCCN)C(=O)N[C@@H](CCCNC(=N)N)C(=O)N[C@@H](CCC(N)=O)C(=O)N[C@@H](CCC(N)=O)C(N)=O)[C@@H](C)CC)[C@@H](C)CC)[C@@H](C)O)[C@@H](C)O)C(C)C)C(C)C [MELITTIN] |  |  |  |  |  |  |  | 2.7 µg/mL |  |  |  |  |  |  |  |  | 
7 | O=C(NCCCOCCOCCOCCCNC(=O)C(=O)c1c[nH]c2cc(Br)ccc12)C(=O)c1c[nH]c2cc(Br)ccc12 | > 200 µM | >200 µM | > 44 µM | > 200 µM | > 200 µM | > 44 µM | > 44 µM |  | 75.4 µM | > 44 µM | > 44 µM | 12.5 µM (≈ 9.01 µg/mL) | inactive | inactive | inactive | inactive | 
8 | O=C(NCCCCCCCCCCCCNC(=O)C(=O)c1c[nH]c2cc(Br)ccc12)C(=O)c1c[nH]c2cc(Br)ccc12 | > 200 µM | >200 µM | > 46 µM | > 200 µM | > 200 µM | > 46 µM | > 46 µM |  | 89.1 µM | > 46 µM | > 46 µM | 100 µM (≈ 70 µg/mL) | inactive | inactive | inactive | inactive | 
9 | CC(C)[C@@H](CC[C@@H](C)[C@H]1CC[C@H]2[C@@H]3[C@H](O)C[C@H]4C[C@@H](NCCCNCCCCN)CC[C@]4(C)[C@H]3CC[C@]12C)OS(=O)(=O)O |  |  |  |  |  |  |  |  |  |  |  |  |  |  |  |  | Activity (Staphylococcus aureus [16]): Dose-dependent effect
10 | O=C(NCCCNCCCCCCNCCCNC(=O)C(=O)c1c[nH]c2cc(Br)ccc12)C(=O)c1c[nH]c2cc(Br)ccc12.O=C(O)C(F)(F)F.O=C(O)C(F)(F)F | 52.2 µM | 6.52 µM | > 33.4 µM | > 200 µM | 6.5 µM | 33.4 µM | > 33.4 µM | 18 µM | 5.7 µM | 17.1 µM | 8.35 µM |  | inactive |  | inactive |  | 
11 | O=C(NCCCNCCCCCCCCNCCCNC(=O)C(=O)c1c[nH]c2cc(Br)ccc12)C(=O)c1c[nH]c2cc(Br)ccc12.O=C(O)C(F)(F)F.O=C(O)C(F)(F)F | 50 µM | 25 µM | > 32.4 µM | 6.25 µM | 50 µM | 32.4 µM | > 32.4 µM | > 32 µM | 5.6 µM | 6.2 µM | 8.11 µM | 12.5 µM | inactive |  | inactive |  | Activity (Erythrocyte [11]): Non-Toxic
12 | OC(Cn1cncn1)(Cn1cncn1)c1ccc(F)cc1F [FLUCONAZOLE] |  |  |  |  |  | 8 µg/mL |  |  |  |  | 0.125 µg/mL |  |  |  |  |  | 
13 | CN(C)CCNC(=O)C(=O)c1c[nH]c2cc(Br)ccc12 | > 200 µM | >200 µM | > 95 µM | > 200 µM | > 200 µM | > 95 µM | > 95 µM |  | 99.5 µM | > 95 µM | > 95 µM | 12.5 µM (≈ 4.23 µg/mL) | inactive | inactive | inactive | inactive | 
14 | Cetyl trimethylammonium bromide |  |  |  |  |  |  |  |  |  |  |  |  |  |  |  |  | Activity (Staphylococcus aureus [17]): Active; Activity (Pseudomonas aeruginosa [18]): Active; Activity (Pseudomonas aeruginosa [19]): 10%
15 | O=C(NCCCNCCCCCCCCCCCCNCCCNC(=O)C(=O)c1c[nH]c2cc(Br)ccc12)C(=O)c1c[nH]c2cc(Br)ccc12.O=C(O)C(F)(F)F.O=C(O)C(F)(F)F | > 200 µM | >200 µM | > 32 µM | > 200 µM | > 200 µM | 7.67 µM | > 32 µM | 2.18 µM | 1.6 µM | 9.72 µM | 7.67 µM |  | inactive |  | inactive |  | 
16 | O=C(NCCCNCCNC(=O)C(=O)c1c[nH]c2cc(Br)ccc12)C(=O)c1c[nH]c2cc(Br)ccc12 | > 200 µM | >200 µM | > 52 µM | > 200 µM | 12.5 µM (≈ 7.72 µg/mL) | > 52 µM | > 52 µM |  | 89.3 µM | > 52 µM | > 52 µM | 50 µM (≈ 30.9 µg/mL) | inactive | inactive | inactive | inactive | 
17 | O=C(NCCCCNC(=O)C(=O)c1c[nH]c2cc(Br)ccc12)C(=O)c1c[nH]c2cc(Br)ccc12 | > 200 µM | >200 µM | > 54 µM | > 200 µM | > 200 µM | > 54 µM | > 54 µM |  | > 150 µM | > 54 µM | > 54 µM | > 200 µM | inactive | inactive | inactive | inactive | 
18 | O=C(NCCN1CCOCC1)C(=O)c1c[nH]c2cc(Br)ccc12 | > 200 µM | >200 µM | > 84 µM | > 200 µM | > 200 µM | > 84 µM | > 84 µM |  | 157 µM | > 84 µM | > 84 µM | 12.5 µM (≈ 4.75 µg/mL) | inactive | inactive | inactive | inactive | 
